# Source: patent US20090312364A1, “NOVEL CHROMEN-2-ONE DERIVATIVES AND THEIR USE AS MONOAMINE NEUROT[…]-UPTAKE INHIBITORS” (NeuroSearch A/S, priority 2006, published 2009)
# Counter-ions that a name gives are not always drawn.
# Tests used:
# Type in all cases: biochemical
# [1] = molecular target: T1, serotonine (5-HT) reuptake in synaptosomes (Rattus norvegicus, UniProt P31652); assay: In vitro inhibition of 5-HT reuptake in synaptosomes; details: 3H-5-HT, as described in WO 97/16451, read-out: 5-HT-uptake IC50
# T1 construct: in synaptosomes as described in WO 97/16451; from tissue
# Experimental: (§1) A number of compounds were tested for their ability to inhibit the reuptake of the monoamine neurotransmitters dopamine (DA), noradrenaline (NA) and serotonine (5-HT) in synaptosomes as described in WO 97/16451.
# (§2) The test values are given as IC50 (the concentration (μM) of the test substance which inhibits the specific binding of ^3H-DA, ^3H-NA, or ^3H-5-HT by 50%).
# [2] = molecular target: T2, noradrenaline (NA) reuptake in synaptosomes (Rattus norvegicus, UniProt Q9WTR4); assay: In vitro inhibition of NA reuptake in synaptosomes; details: 3H-NA, as described in WO 97/16451, read-out: NA-uptake IC50
# T2 construct: in synaptosomes as described in WO 97/16451; from tissue
# Experimental: as §1, §2
# [3] = molecular target: T3, dopamine (DA) reuptake in synaptosomes (Rattus norvegicus, UniProt P23977); assay: In vitro inhibition of DA reuptake in synaptosomes; details: 3H-DA, as described in WO 97/16451, read-out: DA-uptake IC50
# T3 construct: in synaptosomes as described in WO 97/16451; from tissue
# Experimental: as §1, §2
# T2 sequence (Q9WTR4 1-597): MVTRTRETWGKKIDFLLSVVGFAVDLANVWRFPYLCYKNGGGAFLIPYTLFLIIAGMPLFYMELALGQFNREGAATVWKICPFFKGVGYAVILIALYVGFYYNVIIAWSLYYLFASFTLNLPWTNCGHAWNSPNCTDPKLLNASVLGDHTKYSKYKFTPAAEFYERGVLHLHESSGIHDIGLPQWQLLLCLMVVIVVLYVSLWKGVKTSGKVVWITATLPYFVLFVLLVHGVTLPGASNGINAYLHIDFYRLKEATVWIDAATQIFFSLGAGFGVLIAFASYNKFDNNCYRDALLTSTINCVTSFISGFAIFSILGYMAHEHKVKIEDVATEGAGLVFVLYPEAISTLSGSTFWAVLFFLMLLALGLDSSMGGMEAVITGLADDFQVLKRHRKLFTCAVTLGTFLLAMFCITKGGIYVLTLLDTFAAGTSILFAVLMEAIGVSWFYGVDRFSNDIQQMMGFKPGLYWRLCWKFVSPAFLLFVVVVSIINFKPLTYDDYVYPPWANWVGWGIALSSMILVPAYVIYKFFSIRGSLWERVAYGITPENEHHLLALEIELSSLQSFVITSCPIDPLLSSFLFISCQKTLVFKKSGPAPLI
# T3 sequence (P23977 whole entry): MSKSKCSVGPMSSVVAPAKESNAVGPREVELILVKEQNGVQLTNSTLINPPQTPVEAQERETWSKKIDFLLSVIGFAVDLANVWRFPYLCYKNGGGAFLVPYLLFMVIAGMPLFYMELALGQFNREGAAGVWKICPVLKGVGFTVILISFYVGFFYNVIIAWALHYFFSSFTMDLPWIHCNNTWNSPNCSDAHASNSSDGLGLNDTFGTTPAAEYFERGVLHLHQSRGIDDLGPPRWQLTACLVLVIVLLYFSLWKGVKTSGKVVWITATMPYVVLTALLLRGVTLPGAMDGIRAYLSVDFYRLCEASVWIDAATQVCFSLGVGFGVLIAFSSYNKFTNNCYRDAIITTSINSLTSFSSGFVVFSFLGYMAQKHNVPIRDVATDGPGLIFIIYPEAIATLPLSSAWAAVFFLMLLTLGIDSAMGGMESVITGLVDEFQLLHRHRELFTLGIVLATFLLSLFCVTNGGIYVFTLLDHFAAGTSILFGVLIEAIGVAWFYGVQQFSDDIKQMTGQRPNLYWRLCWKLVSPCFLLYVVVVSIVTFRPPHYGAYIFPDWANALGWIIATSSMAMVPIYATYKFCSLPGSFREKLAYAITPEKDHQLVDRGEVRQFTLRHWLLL
# T1 sequence (P31652 whole entry): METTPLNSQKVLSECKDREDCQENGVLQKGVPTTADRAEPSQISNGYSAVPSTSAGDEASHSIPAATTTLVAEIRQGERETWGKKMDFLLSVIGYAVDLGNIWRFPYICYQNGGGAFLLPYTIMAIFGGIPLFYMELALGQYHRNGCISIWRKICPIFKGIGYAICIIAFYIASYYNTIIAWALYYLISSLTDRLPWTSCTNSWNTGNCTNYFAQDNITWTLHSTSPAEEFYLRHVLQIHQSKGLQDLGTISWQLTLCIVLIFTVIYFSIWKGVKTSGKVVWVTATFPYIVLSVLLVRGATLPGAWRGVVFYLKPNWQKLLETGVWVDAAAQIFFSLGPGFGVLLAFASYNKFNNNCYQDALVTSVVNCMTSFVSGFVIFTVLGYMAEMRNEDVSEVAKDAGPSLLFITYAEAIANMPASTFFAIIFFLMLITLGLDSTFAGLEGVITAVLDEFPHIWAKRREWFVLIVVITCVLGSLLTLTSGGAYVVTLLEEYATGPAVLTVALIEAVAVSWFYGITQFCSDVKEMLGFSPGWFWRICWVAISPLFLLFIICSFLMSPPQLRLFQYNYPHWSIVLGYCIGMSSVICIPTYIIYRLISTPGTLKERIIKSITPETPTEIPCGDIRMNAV
Compound,IC50 [1] [nM],IC50 [2] [nM],IC50 [3] [nM]
"O=c1oc2cc(O[C@@H]3C[C@H]4CC[C@@H](C3)N4)ccc2cc1-c1cccc(F)c1 [6th Compound of Example 2, exo-7-[(1S,3S,5R)-(8-Aza-bicyclo[3.2.1]oct-3-yl)oxy]-3-(3-fluoro-phenyl)-chromen-2-one hydrochloric acid salt]",5.8,26,28
"O=c1cc(-c2ccccc2)c2ccc(O[C@@H]3C[C@H]4CC[C@@H](C3)N4)cc2o1 [4th Compound of Example 2, exo-7-[(1S,3S,5R)-(8-Aza-bicyclo[3.2.1]oct-3-yl)oxy]-4-phenyl-chromen-2-one hydrochloric acid salt]",29,> 1000,> 1000
"O=c1oc2cc(O[C@@H]3C[C@H]4CC[C@@H](C3)N4)ccc2cc1-c1ccccc1 [1st Compound of Example 2, exo-7-[(1S,3S,5R)-(8-Aza-bicyclo[3.2.1]oct-3-yl)oxy]-3-phenyl-chromen-2-one hydrochloric acid salt]",6,19,48
